Measurements published in US20240041050A1, “CELL PENETRATING PEPTIDE MEDIATED RNA TRANSDUCTION WITHIN INSECT CELLS” (PIONEER HI-BRED INTERNATIONAL, INC., priority 2020, published 2024).
Peptide text beside a SMILES is read from it.

Tests used:
Sf9 cells = assay: CPP-mediated delivery of mCherry mRNA cargo into insect cells; format: cell-based, Spodoptera frugiperda; details: complex of 75 μM unlabeled CPP and 10 μg mCherry mRNA, overnight
Source text: (§1) Sample preparation and analysis methods were based on those previously reported (Jafari et al. (201 4) “Serum stability and physicochemical characterization of a novel amphipathic peptide C6M 1 for siRNA delivery”, PLoS One, 9(5), e97797; and Gillet et al. (2017) “Investigating Engineered Ribonucleoprotein Particles to Improve Oral RNAi Delivery in Crop Insect Pests”, Frontiers in Physiology, 8(256), doi: 10.3389/fphys.2017.00256). Reagents are described in Examples 1 and 2. Nanocomplex samples were prepared in one of several ways, depending on type of CPP, RNA, or assay. […] Reaction volumes added to cells were 6.38 μL CPP and 6.38 μL mRNA. Final optimal CPP concentration was assessed by amount of fluorescent signal apparent within cells. For insect cell-based assays with CPP-YFP·Cy3-dsRNA or CPP·dsRNA, first a complex formation solution was prepared in molecular biology-grade water containing 90 mg·mL^−1 maltose, 9 mg·mL^−1 mannitol, 392. 16 mM CaCI2, pH 7.0, and vacuum-filtered using Corning™ Disposable Vacuum Filter and Storage System containing a cellulose nitrate filter. Then, increasing amounts of CPP-YFP were added to Cy3-dsRNA, from a molar ratio (CPP-YFP:Cy3-dsRNA) of 1:4 through 8:1 and incubated protected from light at 25° C. for 90 minutes prior to assessment via gel shift and DLS. Reaction volumes added per cell well were comprised of 17 μL reaction solution, 1 μL CPP, 1 μL dsRNA, and 1 μL molecular biology grade water; reaction sizes for larger total volumes were increased in increments of 20 μL and component ratio was held constant to maintain an ionic strength of […]. Final optimal molar ratio selected for cell experiments were determined by increase of the apparent size of the Cy3-dsRNA band on a native agarose gel (FIG. 2A and FIG. 2B), and/or appearance and increase in size of the complex peak detected by a Zetasizer Ultra (Malvern Panalytical, Malvern, United Kingdom) DLS instrument (FIG. 2C). […] Final optimal BAPC1 concentration was assessed by amount of fluorescent signal apparent within cells. […]

DU182A cells = assay: as above; format: cell-based, Diabrotica undecimpunctata; details: complex of 75 μM unlabeled CPP and 10 μg mCherry mRNA, overnight
Source text: as §1

**Q.** `N=C(N)NCCC[C@H](NC(=O)[C@H](Cc1c[nH]c2ccccc12)NC(=O)[C@H](CCCNC(=N)N)NC(=O)[C@@H](N)CS)C(=O)N[C@@H](Cc1c[nH]c2ccccc12)C(=O)N[C@@H](CCCCN)C(=O)N[C@@H](CS)C(=O)N[C@@H](CS)C(=O)N[C@@H](CCCCN)C(=O)N[C@@H](CCCCN)C(=O)O` [CyLoP-1, CRWRWKCCKK] (H-CRWRWKCCKK-OH; N-terminus and C-terminus assumed) was tested. Which “fluorescent protein translated from delivered mCherry mRNA (fluorescent signal inside cells)” value (Sf9 cells) did it give?
**A.** Translation of mRNA into a functional fluorescent protein occurred

**Q.** And the “fluorescent protein translated from delivered mCherry mRNA (fluorescent signal inside cells)” value (DU182A cells)?
**A.** Translation of mRNA into a functional fluorescent protein occurred
